Assay results: patent US20260193264A1, “BENZOYPARAZINE PYRAZINES AND THEIR USES” (FOGHORN THERAPEUTICS INC., priority 2022, published 2026)

How the values were obtained:
[1] = target: T1, HiBiT-BRM fusion protein in stable HeLa cell line (Homo sapiens, UniProt P51531); assay: HiBiT-BRM cell-based degradation assay (Nano-Glo HiBiT Lytic Detection, 24 h); parameters: DC50: scale not given here; details: HeLa HiBiT-BRM cells; for DC50: read-out: BRM HiBit Degradation IC50; for BRM HiBit Degradation Maximum (%): top dose 30 μM
T1 construct: expressed in transfected cells
Summary of the method: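 Luminescence from HiBiT/LgBiT complementation after lysis reports remaining HiBiT-BRM in stable HeLa cells exposed to compound for 24 h. Dosing used 3-fold serial dilutions, 10 points, 30 μM top final concentration. DMSO and a 2 μM BRM/BRG1 degrader standard defined 0% and 100% degradation.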

[2] = target: T2, HiBit-BRG1 fusion protein in stable HeLa cell line expressing HiBit-BRG1 and LgBit (Homo sapiens, UniProt P51532); assay: HiBiT-BRG1 cell-based degradation assay (Nano-Glo HiBiT, 24 h); details: HeLa HiBit-BRG1/LgBit cells; for Dmax: top dose 30 μM, read-out: BRG1 HiBit Degradation Maximum (%); for DC50: read-out: BRMG1 HiBit Degradation IC50
T2 construct: expressed in transfected cells
Summary of the method: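 Stable HeLa line co-expressing HiBiT-BRG1 and LgBiT, compound-treated 24 h; luminescence read after Nano-Glo HiBiT lytic reagent. % degradation normalised between DMSO (high control) and 2 μM reference BRM/BRG1 degrader (low control).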

T2 sequence (P51532 whole entry, the tested form may be a part): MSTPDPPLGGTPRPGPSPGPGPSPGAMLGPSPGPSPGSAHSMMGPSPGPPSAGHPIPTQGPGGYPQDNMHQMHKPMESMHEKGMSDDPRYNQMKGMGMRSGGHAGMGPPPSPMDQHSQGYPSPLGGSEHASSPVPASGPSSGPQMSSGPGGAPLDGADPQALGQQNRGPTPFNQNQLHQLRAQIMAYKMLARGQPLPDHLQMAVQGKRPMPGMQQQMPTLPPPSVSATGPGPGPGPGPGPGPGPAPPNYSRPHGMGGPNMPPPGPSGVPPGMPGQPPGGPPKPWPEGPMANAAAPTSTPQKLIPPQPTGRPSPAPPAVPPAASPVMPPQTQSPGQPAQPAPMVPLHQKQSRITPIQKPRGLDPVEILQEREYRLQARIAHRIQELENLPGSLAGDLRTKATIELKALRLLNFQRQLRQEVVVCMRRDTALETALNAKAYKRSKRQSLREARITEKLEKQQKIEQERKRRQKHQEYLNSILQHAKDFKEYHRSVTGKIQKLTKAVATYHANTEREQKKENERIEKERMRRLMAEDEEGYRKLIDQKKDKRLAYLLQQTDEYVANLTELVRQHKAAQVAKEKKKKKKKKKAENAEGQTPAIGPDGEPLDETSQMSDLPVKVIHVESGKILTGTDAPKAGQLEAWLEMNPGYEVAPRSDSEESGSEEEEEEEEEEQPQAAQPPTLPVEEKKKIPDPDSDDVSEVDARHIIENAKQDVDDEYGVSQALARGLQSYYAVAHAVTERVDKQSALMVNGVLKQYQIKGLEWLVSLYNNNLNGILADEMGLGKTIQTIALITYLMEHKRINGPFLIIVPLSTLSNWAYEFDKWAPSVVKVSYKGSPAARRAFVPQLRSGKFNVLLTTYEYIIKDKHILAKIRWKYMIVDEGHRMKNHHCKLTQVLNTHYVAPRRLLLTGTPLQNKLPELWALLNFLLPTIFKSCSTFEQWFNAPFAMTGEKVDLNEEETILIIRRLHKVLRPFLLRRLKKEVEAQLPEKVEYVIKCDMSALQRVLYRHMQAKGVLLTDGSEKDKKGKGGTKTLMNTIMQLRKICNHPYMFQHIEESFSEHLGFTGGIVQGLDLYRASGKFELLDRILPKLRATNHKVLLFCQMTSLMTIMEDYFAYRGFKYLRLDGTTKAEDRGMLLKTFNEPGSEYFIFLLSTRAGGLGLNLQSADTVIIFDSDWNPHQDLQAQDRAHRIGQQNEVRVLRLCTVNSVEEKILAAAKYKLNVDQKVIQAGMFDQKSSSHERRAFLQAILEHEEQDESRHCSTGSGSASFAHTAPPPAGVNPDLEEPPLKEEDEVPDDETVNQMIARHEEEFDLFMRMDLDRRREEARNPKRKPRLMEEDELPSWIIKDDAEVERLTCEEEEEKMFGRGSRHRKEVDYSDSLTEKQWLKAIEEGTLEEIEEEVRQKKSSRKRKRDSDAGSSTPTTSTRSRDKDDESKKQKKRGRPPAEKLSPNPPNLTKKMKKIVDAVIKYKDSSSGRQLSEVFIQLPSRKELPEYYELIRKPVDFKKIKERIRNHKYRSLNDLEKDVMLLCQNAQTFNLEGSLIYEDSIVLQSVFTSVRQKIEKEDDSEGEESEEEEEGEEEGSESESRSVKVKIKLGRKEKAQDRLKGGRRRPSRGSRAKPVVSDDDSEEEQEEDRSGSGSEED
T1 sequence (P51531 whole entry, the tested form may be a part): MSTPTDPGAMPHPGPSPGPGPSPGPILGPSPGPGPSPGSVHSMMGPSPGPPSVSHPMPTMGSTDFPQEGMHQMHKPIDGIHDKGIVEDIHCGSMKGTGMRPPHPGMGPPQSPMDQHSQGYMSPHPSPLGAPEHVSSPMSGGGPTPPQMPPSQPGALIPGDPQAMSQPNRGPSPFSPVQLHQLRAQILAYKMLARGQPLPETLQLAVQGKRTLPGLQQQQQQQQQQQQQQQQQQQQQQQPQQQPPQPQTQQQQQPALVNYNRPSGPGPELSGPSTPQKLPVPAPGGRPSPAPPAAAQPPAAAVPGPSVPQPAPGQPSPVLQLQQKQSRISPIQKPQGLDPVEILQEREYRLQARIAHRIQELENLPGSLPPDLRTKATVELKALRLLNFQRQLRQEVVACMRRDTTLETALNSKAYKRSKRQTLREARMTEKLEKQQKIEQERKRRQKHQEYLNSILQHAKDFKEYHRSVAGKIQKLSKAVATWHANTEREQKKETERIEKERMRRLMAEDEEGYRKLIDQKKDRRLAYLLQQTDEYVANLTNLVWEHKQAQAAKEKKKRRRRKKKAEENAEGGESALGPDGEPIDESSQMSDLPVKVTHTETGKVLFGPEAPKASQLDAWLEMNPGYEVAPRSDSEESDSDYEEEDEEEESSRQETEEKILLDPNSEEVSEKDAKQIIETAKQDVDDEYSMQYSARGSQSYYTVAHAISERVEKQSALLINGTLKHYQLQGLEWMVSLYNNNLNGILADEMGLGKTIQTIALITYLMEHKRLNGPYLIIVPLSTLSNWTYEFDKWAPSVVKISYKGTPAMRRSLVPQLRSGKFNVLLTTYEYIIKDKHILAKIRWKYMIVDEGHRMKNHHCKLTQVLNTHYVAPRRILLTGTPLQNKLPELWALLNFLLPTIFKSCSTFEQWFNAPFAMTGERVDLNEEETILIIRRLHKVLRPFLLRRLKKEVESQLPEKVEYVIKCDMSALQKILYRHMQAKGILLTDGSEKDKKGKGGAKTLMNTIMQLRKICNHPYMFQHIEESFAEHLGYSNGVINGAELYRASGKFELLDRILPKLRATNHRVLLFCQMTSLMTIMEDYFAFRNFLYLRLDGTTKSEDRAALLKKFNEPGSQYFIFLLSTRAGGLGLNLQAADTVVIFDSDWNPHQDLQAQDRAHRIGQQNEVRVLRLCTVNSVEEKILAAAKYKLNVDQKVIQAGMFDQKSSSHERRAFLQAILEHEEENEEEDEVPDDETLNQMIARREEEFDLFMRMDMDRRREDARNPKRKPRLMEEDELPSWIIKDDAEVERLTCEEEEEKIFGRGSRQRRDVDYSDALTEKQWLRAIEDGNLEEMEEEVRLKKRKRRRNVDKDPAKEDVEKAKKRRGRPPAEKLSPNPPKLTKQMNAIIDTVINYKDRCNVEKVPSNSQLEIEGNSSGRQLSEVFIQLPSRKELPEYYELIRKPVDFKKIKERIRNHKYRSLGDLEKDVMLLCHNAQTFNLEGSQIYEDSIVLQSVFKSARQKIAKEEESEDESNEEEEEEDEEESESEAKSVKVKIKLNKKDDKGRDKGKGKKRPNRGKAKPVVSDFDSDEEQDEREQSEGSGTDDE

| SMILES | DC50 [1] [nM] | BRM HiBit Degradation Maximum (%) [1] | Dmax [2] [%] | DC50 [2] [nM] |
| --- | --- | --- | --- | --- |
| CNC(=O)[C@@H]1C[C@@H](O)CN1C(=O)C(c1cc(N2CC3(CN(c4ccc5cc(-c6ccccc6O)nnc5c4)C3)C2)no1)C(C)C (stereo partly drawn) [Compound 114, (2S,4R)-4-hydroxy-1-(2-(3-(6-(3-(2-hydroxyphenyl)cinnolin-7-yl)-2,6-diazaspiro[3.3]heptan-2-yl)isoxazol-5-yl)-3-methylbutanoyl)-N-methylpyrrolidine-2-carboxamide] | < 10 | A (“A” indicates maximum degradation ≥75%) | < 50 |  |
| Cc1ncsc1-c1ccc([C@H](C)NC(=O)[C@@H]2C[C@@H](O)CN2C(=O)[C@@H](c2cc(N3CCN([C@H]4CCN(c5ccc6cc(-c7ccccc7O)nnc6c5)CC4(F)F)CC3)no2)C(C)C)cc1 [Compound 115, (2S,4R)-1-((R)-2-(3-(4-((S)-3,3-difluoro-1-(3-(2-hydroxyphenyl)cinnolin-7-yl)piperidin-4-yl)piperazin-1-yl)isoxazol-5-yl)-3-methylbutanoyl)-4-hydroxy-N-((S)-1-(4-(4-methylthiazol-5-yl)phenyl)ethyl)pyrrolidine-2-carboxamide] | < 10 | A (“A” indicates maximum degradation ≥75%) | > 75 | < 10 |
| CC(C)[C@@H](C(=O)N1C[C@H](O)C[C@H]1C(=O)N[C@@H](C)c1ccccc1)c1cc(N2CC[C@@H](c3ccc4cc(-c5ccccc5O)nnc4c3)C2)no1 [Compound 116, (2S,4R)-4-hydroxy-1-((R)-2-(3-((S)-3-(3-(2-hydroxyphenyl)cinnolin-7-yl)pyrrolidin-1-yl)isoxazol-5-yl)-3-methylbutanoyl)-N-((S)-1-phenylethyl)pyrrolidine-2-carboxamide] | < 10 | A (“A” indicates maximum degradation ≥75%) | < 50 |  |
| Cc1ncsc1-c1ccc(CNC(=O)[C@@H]2C[C@@H](O)CN2C(=O)C(c2cc(N3CC4(CN(c5ccc6cc(-c7ccccc7O)nnc6c5)C4)C3)no2)C(C)C)cc1 (stereo partly drawn) [Compound 117, (2S,4R)-4-hydroxy-1-(2-(3-(6-(3-(2-hydroxyphenyl)cinnolin-7-yl)-2,6-diazaspiro[3.3]heptan-2-yl)isoxazol-5-yl)-3-methylbutanoyl)-N-(4-(4-methylthiazol-5-yl)benzyl)pyrrolidine-2-carboxamide] | < 10 | A (“A” indicates maximum degradation ≥75%) | < 50 |  |
| CC(C)[C@@H](C(=O)N1C[C@H](O)C[C@H]1C(=O)N[C@@H](C)c1ccccc1)c1cc(N2CC[C@H](c3ccc4cc(-c5ccccc5O)nnc4c3)C2)no1 [Compound 118, (2S,4R)-4-hydroxy-1-((R)-2-(3-((R)-3-(3-(2-hydroxyphenyl)cinnolin-7-yl)pyrrolidin-1-yl)isoxazol-5-yl)-3-methylbutanoyl)-N-((S)-1-phenylethyl)pyrrolidine-2-carboxamide] | > 10 | A (“A” indicates maximum degradation ≥75%) | < 50 |  |
| CC(C)C(C(=O)N1C[C@H](O)C[C@H]1C(=O)NCC12CC(C1)C2)c1cc(N2CC3(CN(c4ccc5cc(-c6ccccc6O)nnc5c4)C3)C2)no1 (stereo partly drawn) [Compound 119, (2S,4R)-N-(bicyclo[1.1.1]pentan-1-ylmethyl)-4-hydroxy-1-(2-(3-(6-(3-(2-hydroxyphenyl)cinnolin-7-yl)-2,6-diazaspiro[3.3]heptan-2-yl)isoxazol-5-yl)-3-methylbutanoyl)pyrrolidine-2-carboxamide] | > 10 | A (“A” indicates maximum degradation ≥75%) | < 50 |  |
| CC(C)C(C(=O)N1C[C@H](O)C[C@H]1C(=O)N[C@@H](C)c1ccccn1)c1cc(N2CC3(CN(c4ccc5cc(-c6ccccc6O)nnc5c4)C3)C2)no1 (stereo partly drawn) [Compound 120, (2S,4R)-4-hydroxy-1-(2-(3-(6-(3-(2-hydroxyphenyl)cinnolin-7-yl)-2,6-diazaspiro[3.3]heptan-2-yl)isoxazol-5-yl)-3-methylbutanoyl)-N-((S)-1-(pyridin-2-yl)ethyl)pyrrolidine-2-carboxamide] | > 10 | A (“A” indicates maximum degradation ≥75%) | < 50 |  |
| Cc1cc2cc(-c3ccccc3O)nnc2cc1N1CC2(CN(c3cc([C@H](C(=O)N4C[C@H](O)C[C@H]4C(=O)N[C@@H](C)c4ccc(-c5scnc5C)cc4)C(C)C)on3)C2)C1 [Compound 121, (2S,4R)-4-hydroxy-1-((R)-2-(3-(6-(3-(2-hydroxyphenyl)-6-methylcinnolin-7-yl)-2,6-diazaspiro[3.3]heptan-2-yl)isoxazol-5-yl)-3-methylbutanoyl)-N-((S)-1-(4-(4-methylthiazol-5-yl)phenyl)ethyl)pyrrolidine-2-carboxamide] | < 10 | A (“A” indicates maximum degradation ≥75%) | > 75 | < 10 |
| Cc1ncsc1-c1ccc([C@H](C)NC(=O)[C@@H]2C[C@@H](O)CN2C(=O)[C@@H](c2cc(N3CCC4(CC3)CC(N(C)c3ccc5cc(-c6ccccc6O)nnc5c3)C4)no2)C(C)C)cc1 [Compound 122, (2S,4R)-4-hydroxy-1-((R)-2-(3-(2-((3-(2-hydroxyphenyl)cinnolin-7-yl)(methyl)amino)-7-azaspiro[3.5]nonan-7-yl)isoxazol-5-yl)-3-methylbutanoyl)-N-((S)-1-(4-(4-methylthiazol-5-yl)phenyl)ethyl)pyrrolidine-2-carboxamide] | < 10 | A (“A” indicates maximum degradation ≥75%) | > 75 | < 10 |
| Cc1ncsc1-c1ccc([C@H](C)NC(=O)[C@@H]2C[C@@H](O)CN2C(=O)[C@@H](c2cc(N3CCN([C@H]4CCN(c5ccc6nnc(-c7ccccc7O)cc6c5)CC4(F)F)CC3)no2)C(C)C)cc1 [Compound 123, (2S,4R)-1-((R)-2-(3-(4-((S)-3,3-difluoro-1-(3-(2-hydroxyphenyl)cinnolin-6-yl)piperidin-4-yl)piperazin-1-yl)isoxazol-5-yl)-3-methylbutanoyl)-4-hydroxy-N-((S)-1-(4-(4-methylthiazol-5-yl)phenyl)ethyl)pyrrolidine-2-carboxamide] | < 10 | A (“A” indicates maximum degradation ≥75%) | > 75 | < 10 |
| Cc1ncsc1-c1ccc([C@H](C)NC(=O)[C@@H]2C[C@@H](O)CN2C(=O)[C@@H](c2cc(N3CCN([C@@H]4CCN(c5ccc6nnc(-c7ccccc7O)cc6c5)CC4(F)F)CC3)no2)C(C)C)cc1 [Compound 124, (2S,4R)-1-((R)-2-(3-(4-((R)-3,3-difluoro-1-(3-(2-hydroxyphenyl)cinnolin-6-yl)piperidin-4-yl)piperazin-1-yl)isoxazol-5-yl)-3-methylbutanoyl)-4-hydroxy-N-((S)-1-(4-(4-methylthiazol-5-yl)phenyl)ethyl)pyrrolidine-2-carboxamide] | < 10 | A (“A” indicates maximum degradation ≥75%) | > 75 | < 10 |
